Source: patent US20260152487A1 (Sitryx Therapeutics Limited, priority 2021, published 2026)

Experiments:
recombinant human PKM2 = target: T1, recombinant human PKM2 (Homo sapiens, UniProt P14618); assay: Human PKM2 activation assay (Kinase-Glo Plus luminescent detection of generated ATP); type: biochemical; conditions: for Emax: percentage activation normalised to DMSO vehicle (LOW) and 5 μM TEPP-46 (HIGH), read-out: hPKM2 Emax; for EC50: recombinant human PKM2 activation, 4-parameter logistic fit, read-out: hPKM2 EC50
T1 construct: His (N); purchased R&D Systems
Procedure, shortened: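 N-His-tagged recombinant hPKM2 ([…]) with PEP and ADP was incubated with compound for 60 min at 26 °C, shaking, in 50 mM imidazole, 50 mM KCl, 7 mM MgCl2, 0.01% Tween20, 0.05% BSA, pH 7.2. ATP produced was read by Kinase-Glo Plus luminescence after 15 min.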

A549 cells = assay: A549 cell proliferation in low-serine medium (CellTiter-Glo 2.0 viable cell number); type: cell-based; conditions: Homo sapiens, 72 h, 3 days, Assay Medium with 20 μM L-serine
Protocol: The effect of compounds of Formula (Ia) on A549 cell proliferation in low-serine medium was assessed using a luminescence assay of viable cell number (CellTiter-Glo® 2.0, Promega) duplexed with a fluorescent cytotoxicity assessment (CelITox™ Green, Promega). Cell culture reagents were from ThermoFisher unless specified otherwise. Assay reagents were from Sigma-Aldrich unless specified otherwise. Test Compounds were prepared as 10 mM DMSO stocks and dilution series prepared in DMSO for direct dilution into culture medium.
Cells were passaged every 3-4 days at 80-90% confluence. The cell monolayer was washed twice with room-temperature Ca^2+/Mg-free PBS and 4 ml room-temperature trypsin-EDTA added to the flask. After 5 minutes' incubation (37° C., 5% CO2) to detach cells, trypsin was quenched with 13 ml warmed complete growth medium and the cells harvested and diluted to 2.4×10^4 cells/ml for dispensing into 384-well clear-bottom black-walled plates (600 cells/well).
Following overnight incubation, growth medium was aspirated from each well and the cells washed twice with Assay Medium comprising Basal Medium Eagle supplemented with 3% heat-inactivated dialysed FBS plus 2 mM L-glutamine plus 20 μM L-serine (Sigma-Aldrich). After aspiration of the final wash medium, Assay Medium containing Test Compound was added to each well. DMSO vehicle controls were included on each plate.
Cells were incubated for 3 days in a humidified incubator (37° C., 5% CO2) at which point CelITox™ Green and CellTiter-Glo® reagents were prepared according to the manufacturer's instructions. Triton-X was added to HIGH wells for cytotoxicity determination and the plate incubated for 30 minutes (20° C., ambient humidity and pCO2). CelITox™ Green reagent was added to each well and the plate covered, placed on an orbital shaker @450 rpm for 2 minutes, and incubated in the dark for 15 minutes (20° C., ambient humidity and pCO2). Endpoint fluorescence was measured using a plate reader (PHERAstar® FSX, BMG Labtech).
Following cytotoxicity determination, CellTiter-Glo® reagent was added to each well and the plate placed on an orbital shaker @450 rpm for 2 minutes to lyse cells. Plates were incubated in the dark for 15-30 minutes (20° C., ambient humidity and pCO2) prior to endpoint luminescence measurement (PHERAstar® FSX, BMG Labtech).
Proliferation was calculated by normalizing luminescence signals to LOW controls obtained from a parallel plate processed at the time of Test Compound challenge and HIGH (DMSO vehicle) wells from the compound plate. IC50 values were determined from a 4-parameter logistic fit of compound concentration-response curves.

recombinant human PKLR = target: T2, recombinant human PKLR (Homo sapiens, UniProt P30613); assay: Human PKLR activation assay (Kinase-Glo Plus luminescent detection of generated ATP); type: biochemical; conditions: for EC50: activation of recombinant human PKLR, 4-parameter logistic fit, read-out: hPKLR EC50; for Emax: percentage activation normalised to DMSO vehicle (LOW) and 5 μM TEPP-46 (HIGH) controls, read-out: hPKLR Emax (%)
T2 construct: His (N); purchased R&D Systems
Protocol: Compound activation of recombinant human PKLR pyruvate kinase activity was determined by biochemical assay. N-terminal His-tagged enzyme was sourced from R&D Systems and its substrates phosphoenolpyruvate (PEP) and ADP from Sigma-Aldrich and 2Bscientific Ltd, respectively. The Kinase-Glo® Plus luminescence assay was from Promega. All other reagents were from Sigma-Aldrich. Test Compounds were prepared as 10 mM DMSO stocks and dilution series prepared in DMSO for direct dilution into Assay Buffer comprising 50 mM imidazole, 50 mM KCl, 7 mM MgCl2, 0.01% Tween20, 0.05% BSA (pH 7.2).
Human PKLR was diluted into Assay Buffer to a final concentration of 5 pM. Enzyme-Assay Buffer mix was dispensed into 384-well shallow-well white-walled plates and Test Compounds added by acoustic dispense (Echo®, Labcyte Inc).
After 60 minutes' incubation on an orbital shaker (300 rpm, 26° C.), enzyme activity was quantified by the luminescent detection of generated ATP. Kinase-Glo® Plus reagent was added to each well and the plates incubated for a further 15 minutes on an orbital shaker in the dark (300 rpm, 26° C.) before luminescence measurement on a plate reader (PHERAstar® FSX, BMG Labtech).
Percentage activation was calculated by normalising […] signals to plate LOW (DMSO vehicle) and HIGH (5 μM TEPP-46) controls. EC50 and Emax values were determined from 4-parameter logistic fits of compound concentration-response curves.

T1 sequence (P14618 2-531 limits assumed): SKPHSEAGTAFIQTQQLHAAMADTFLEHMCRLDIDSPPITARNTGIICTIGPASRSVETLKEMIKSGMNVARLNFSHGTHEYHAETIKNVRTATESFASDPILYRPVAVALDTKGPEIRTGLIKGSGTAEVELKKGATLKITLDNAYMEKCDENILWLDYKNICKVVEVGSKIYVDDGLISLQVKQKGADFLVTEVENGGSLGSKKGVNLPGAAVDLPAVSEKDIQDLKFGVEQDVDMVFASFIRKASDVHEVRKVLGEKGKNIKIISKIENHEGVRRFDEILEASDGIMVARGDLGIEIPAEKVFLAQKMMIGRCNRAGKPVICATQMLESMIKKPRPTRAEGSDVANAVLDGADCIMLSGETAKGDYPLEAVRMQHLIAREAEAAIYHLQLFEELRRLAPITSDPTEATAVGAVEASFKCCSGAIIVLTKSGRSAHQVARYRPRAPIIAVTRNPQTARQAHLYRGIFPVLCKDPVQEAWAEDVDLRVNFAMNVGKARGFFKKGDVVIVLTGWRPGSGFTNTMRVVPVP
T2 sequence (P30613 whole entry): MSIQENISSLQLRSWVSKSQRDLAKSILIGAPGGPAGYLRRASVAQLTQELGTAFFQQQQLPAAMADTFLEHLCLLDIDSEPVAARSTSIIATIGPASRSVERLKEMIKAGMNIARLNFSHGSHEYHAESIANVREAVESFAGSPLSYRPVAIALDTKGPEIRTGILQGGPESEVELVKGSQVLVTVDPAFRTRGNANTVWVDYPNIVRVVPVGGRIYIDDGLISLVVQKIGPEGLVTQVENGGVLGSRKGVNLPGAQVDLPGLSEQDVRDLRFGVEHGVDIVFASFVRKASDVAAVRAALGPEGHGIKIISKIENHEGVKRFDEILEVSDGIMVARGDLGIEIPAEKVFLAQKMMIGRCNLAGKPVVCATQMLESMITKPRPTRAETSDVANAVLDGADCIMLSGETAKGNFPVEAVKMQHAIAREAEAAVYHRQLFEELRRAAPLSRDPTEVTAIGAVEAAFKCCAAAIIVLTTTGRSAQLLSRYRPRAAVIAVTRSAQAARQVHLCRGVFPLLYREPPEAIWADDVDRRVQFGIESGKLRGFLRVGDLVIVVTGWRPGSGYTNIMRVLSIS

## Cc1ncc(Cn2ncc3cc(S(=O)(=O)c4ccccc4)ccc3c2=O)s1 [Example 30, 2-((2-methylthiazol-5-yl)methyl)-6-(phenylsulfonyl)phthalazin-1(2H)-one]
Recombinant human PKM2
  Emax: 99.4%
  EC50: 739 nM
A549 cells
  IC50: 15.8 nM

## Cn1ncc2cc(Cn3ncc4cc(S(=O)(=O)c5ccccc5)ccc4c3=O)ccc21 [Example 36, 2-((1-methyl-1H-indazol-5-yl)methyl)-6-(phenylsulfonyl)phthalazin-1(2H)-]
Recombinant human PKM2
  Emax: 70%
  EC50: 207 nM
A549 cells
  IC50: 20.6 nM

## COc1ccc(S(=O)(=O)c2ccc3c(=O)n(Cc4n[nH]c5ccccc45)ncc3c2)cc1 [Example 48, 2-((1H-indazol-3-yl)methyl)-6-((4-methoxyphenyl)sulfonyl)phthalazin-1(2H)-one]
Recombinant human PKM2
  Emax: 85.8%
  EC50: 55.2 nM
A549 cells
  IC50: 1.6 nM

## O=c1c2ccc(S(=O)(=O)c3ccccc3)cc2cnn1Cc1ccc(OCCO)nc1 [Example 21, 2-((6-(2-hydroxyethoxy)pyridin-3-yl)methyl)-6-(phenylsulfonyl)phthalazin-1(2H)-one]
Recombinant human PKM2
  Emax: 102%
  EC50: 131 nM
A549 cells
  IC50: 12.1 nM

## O=C(c1ccc(NS(=O)(=O)c2cccc3cccnc23)cc1)N1CCN(CC2CC2)CC1 [Mitapivat, mitapivat, reference compound]
A549 cells
  IC50: 4.4 nM

## COc1ccc(S(=O)(=O)c2ccc3c(=O)n(Cc4cc[nH]n4)ncc3c2)cc1 [Example 6, 2-((1H-pyrazol-3-yl)methyl)-6-((4-methoxyphenyl)sulfonyl)phthalazin-1(2H)-one]
Recombinant human PKM2
  Emax: 109%
  EC50: 38.9 nM
A549 cells
  IC50: 1.7 nM

## COc1cncc(Cn2ncc3cc(S(=O)(=O)c4ccccc4)ccc3c2=O)c1 [Example 31, 2-((5-methoxypyridin-3-yl)methyl)-6-(phenylsulfonyl)phthalazin-1(2H)-one]
Recombinant human PKM2
  Emax: 74.9%
  EC50: 809 nM
A549 cells
  IC50: 42 nM

## COc1ccc(S(=O)(=O)c2ccc3c(=O)n(Cc4ccnc(O)c4)ncc3c2)cc1 [Example 55, 2-((2-hydroxypyridin-4-yl)methyl)-6-((4-methoxyphenyl)sulfonyl)phthalazin-1(2H)-one]
A549 cells
  IC50: 21.7 nM

## COc1ccc(Cn2ncc3cc(S(=O)(=O)c4cnn(CCO)c4)ccc3c2=O)cn1 [Example 271, 6-((1-(2-hydroxyethyl)-1H-pyrazol-4-yl)sulfonyl)-2-((6-methoxypyridin-3-yl)methyl)phthalazin-1(2H)-one]
Recombinant human PKM2
  Emax: 81.3%
  EC50: 54.5 nM
Recombinant human PKLR
  EC50: 26.4 nM
  Emax: 119%

## COc1ccc(S(=O)(=O)c2ccc3c(=O)n(Cc4cccn(CCO)c4=O)ncc3c2)cc1 [Example 5, 2-((1-(2-hydroxyethyl)-2-oxo-1,2-dihydropyridin-3-yl)methyl)-6-(4-methoxyphenylsulfonyl)phthalazin-1(2H)-one]
Recombinant human PKM2
  Emax: 102%
  EC50: 60.7 nM
Recombinant human PKLR
  EC50: 19.3 nM
  Emax: 111%

## COc1ccc([S@@](=N)(=O)c2ccc3c(=O)n(Cc4ccc(OC)nc4)ncc3c2)cc1 (single isomer, unassigned) [Example 138]
Recombinant human PKM2
  Emax: 91.2%
  EC50: 85.6 nM
Recombinant human PKLR
  EC50: 14 nM
  Emax: 133%

## Cc1cccc(Cn2ncc3cc(S(=O)(=O)c4cnn(C5COC5)c4)ccc3c2=O)n1 [Example 270, 2-((6-methylpyridin-2-yl)methyl)-6-((1-(oxetan-3-yl)-1H-pyrazol-4-yl)sulfonyl)phthalazin-1(2H)-one]
Recombinant human PKM2
  Emax: 103%
  EC50: 138 nM
Recombinant human PKLR
  EC50: 108 nM
  Emax: 136%

## Cn1ccc(Cn2ncc3cc(S(=O)(=O)c4ccc5c(c4)NCCO5)ccc3c2=O)n1 [Example 201, 6-((3,4-dihydro-2H-benzo[b][1,4]oxazin-6-yl)sulfonyl)-2-((1-methyl-1H-pyrazol-3-yl)methyl)phthalazin-1(2H)-one]
Recombinant human PKM2
  Emax: 103%
  EC50: 27.9 nM
Recombinant human PKLR
  EC50: 2.9 nM
  Emax: 140%
